Results on 17 compounds are retold here after patent publication US10906876B2, “Tetrahydroisoquinolines as selective NADPH oxidase 2 inhibitors” (University of Pittsburgh—Of the Commonwealth System of …, priority 2013, dated 2021).

Several values for one entry are separate records, joined by “and”; a condition that tells them apart may be missing. Equal entries are not always repeated. Some results are limits rather than exact numbers.

In data set [1] the target is T1, Nox2 (Homo sapiens, UniProt P04839).
T1 construct: expressed in transfected cells
T1 sequence (P04839 2-570 limits assumed): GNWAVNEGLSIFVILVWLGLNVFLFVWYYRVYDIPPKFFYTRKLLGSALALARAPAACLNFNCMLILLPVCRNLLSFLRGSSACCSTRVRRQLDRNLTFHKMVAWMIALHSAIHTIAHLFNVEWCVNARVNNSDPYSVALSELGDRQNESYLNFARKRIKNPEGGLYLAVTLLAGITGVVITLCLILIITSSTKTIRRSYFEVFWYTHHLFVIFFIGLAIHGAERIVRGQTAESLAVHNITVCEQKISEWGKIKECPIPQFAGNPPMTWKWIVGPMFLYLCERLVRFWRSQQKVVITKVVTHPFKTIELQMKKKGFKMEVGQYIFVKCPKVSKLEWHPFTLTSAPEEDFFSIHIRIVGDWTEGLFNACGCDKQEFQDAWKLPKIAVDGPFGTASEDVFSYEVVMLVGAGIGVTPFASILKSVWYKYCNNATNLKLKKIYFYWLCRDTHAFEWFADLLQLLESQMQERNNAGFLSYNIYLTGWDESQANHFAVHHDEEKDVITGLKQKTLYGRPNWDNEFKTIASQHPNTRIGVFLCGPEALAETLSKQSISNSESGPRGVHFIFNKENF
The data set is described as follows: ROS (H2O2) generation in whole COS-Nox2 cells, Amplex Red assay. The class given is cell-based. The conditions noted are these: for IC50: whole COS-Nox2 cells stimulated with 5 μM PMA, Amplex Red; for Nox2 inhibitory activity: Table 2; for Selectivity for Nox2 over other Nox isoforms: cell-based assays for each Nox system. The text has this: All cell culture reagents were obtained from Invitrogen, unless indicated. COS-22 (COS-7 cells stably expressing human p22^phox) and COS-Nox2 (a.k.a. COS-phox) cells (COS-7 cells stably expressing human p22^phox, Nox2, p47^phox and p67^phox) were kindly provided by Dr. Mary C. Dinauer (Indiana University, School of Medicine) (Price et al., Blood, 2002, 99:2653-2661). COS-22 cells were maintained in Dulbecco's Modified Eagle Medium (DMEM) with 4.5 g/L glucose, L-glutamine and sodium pyruvate containing 10% heat-inactivated fetal bovine serum (FBS), 100 units/ml penicillin and 100 μg/ml streptomycin (complete media) supplemented with 1.8 mg/ml G418 (Calbiochem/EMB Bioscience, Gibbstown, N.J.). COS-Nox2 cells were maintained in complete media supplemented with 1.8 mg/mL G418, 1 μg/mL puromycin (Sigma, St Louis, Mo.) and 0.2 mg/mL hygromycin B (Invitrogen, Carlsbad, Calif.). HEK-Nox5 cells were kindly provided by Dr. David Fulton (Georgia Health Sciences University) and maintained in complete media.
H2O2 production was quantified in intact COS-Nox4 cells by Amplex® Red. Briefly, COS-Nox4 cells (5×10^4 cells/ml) were re-plated into 384-well plate in assay buffer (25 mM Hepes, pH 7.4, containing 0.12 M NaCl, 3 mM KCl, 1 mM MgCl2). The cells were incubated in the presence or absence of drugs at 37° C. in assay buffer supplemented with 0.1 mM Amplex® Red, and 0.32 U/ml of horse radish peroxidase (HRP) for 15 min. Fluorescence measurements were made using a Biotek Synergy 4 Hybrid Multi-Mode Microplate Reader with a 530/25-excitation and a 590/35-emission filter. The reaction was monitored at 37° C. for 1 h. A standard curve of known H2O2 concentrations was included on each plate. Nox4 activity was obtained by calculating the rate of H2O2 production as RFU/min and then subtracting the equivalent value given by non-transfected COS-22 cells. Similarly, H2O2 production by Nox2 cells was also measured by Amplex® Red as described above but in the presence of 150 U/mL of SOD and the reaction was initiated by addition of 5 μM PMA. The rate of H2O2 production in this case was calculated as RFU/min after the subtraction of the equivalent value given by non-stimulated cells. Data are expressed as % of vehicle control.
All data are expressed as means±SEM. IC50 values were determined using the GraphPad Prism software (GraphPad Software, San Diego, Calif.) for non-linear regression three-parameters, with constrain values of 100 and 0 for top and bottom, respectively, and assumes a Hill slope of 1.

Data set [2] deals with cells. Kind of data set: Cytotoxicity assay (CytoTox-Glo). The data set is classed as cell-based. The note with it: highest concentration tested (25 and 50 μM tested, FIG. 5). Here is the method:
The cytotoxic effect of compounds was tested using CytoTox-Glo kit (Promega, Madison, Wis.). This assay uses a luminogenic peptide substrate, the AAF-Glo™ Substrate, to measure dead-cell protease activity, which is released from cells that have lost membrane integrity. Cells were plated in 384-well plate at 2.5×10^3 cells/well in OPTIMEM, incubated for 15 min with the compounds at various concentrations and then carried out dead cell measurements according to manufacturer protocol. […] signals before and after the addition of digitonin were used to calculate the % of dead cells in each independent well.
Another undesirable side effect would be the reduction of ROS production in the assays due to cell death rather than an inhibition of Nox2. To verify that this was not the case for these tetrahydroisoquinolines, the effect of various concentrations of the compounds on cell viability was determined using a commercially available CytoTox-Glo assay (Promega). This assay measures the concentration of proteases released from cells that have lost membrane integrity (i.e., dead cells). Data are expressed as % of live cells in each independent well (=100−% dead cells).

One may read the IC50 as the concentration at which inhibition is half-maximal. As to `C=C(C)CC1C2c3c(Br)cccc3C(CC2(C)C)N1Cc1cccc(F)c1` (racemic) [Compound 11f, (±)-(1S,4R,9S)-5-Bromo-10-(3-fluorobenzyl)-3,3-dimethyl-9-(2-methylallyl)-1,2,3,4-tetrahydro-1,4-(epiminomethano)naphthalene], the concentration for half-maximal inhibition (IC50) in data set [1] stood at 51 µM.
With `C=C(C)CC1C2c3c(-c4ccc(Cl)c(Cl)c4)cccc3C(CC2(C)C)N1CCCCC` (racemic) [Compound 12c], in data set [1], the “Nox2 inhibitory activity” value is “inactive” and the IC50 worked out at 79 µM.
Regarding `C=C(C)CC1C2c3c(Br)cccc3C(CC2(C)C)N1S(C)(=O)=O` (racemic) [Compound 14a, (±)-(1S,4R,9S)-5-Bromo-3,3-dimethyl-9-(2-methylallyl)-10-(methylsulfonyl)-1,2,3,4-tetrahydro-1,4-(epiminomethano)naphthalene], in data set [1], the “Nox2 inhibitory activity” value is listed as “completely abolished activity” and the IC50 amounted to 27 ± 4.7 µM.
Take `CC(C)CC1NC2CC(C)(C)C1c1c(Br)cccc12` (racemic) [Compound 13]: in data set [1], the “Nox2 inhibitory activity” value is “retained inhibitory activity” and the half-inhibitory concentration (IC50) was 78 ± 19 µM. For the same compound, the “Effect on cell viability” value in data set [2] is “had any effect on cell viability”.
With `C=C(C)CC1NC2CC(C)(C)C1c1c(-c3ccc(Cl)c(Cl)c3)cccc12` (racemic) [Compound 12a, (±)-(1S,4R,9S)-5-(3,4-Dichlorophenyl)-3,3-dimethyl-9-(2-methylallyl)-1,2,3,4-tetrahydro-1,4-(epiminomethano)naphthalene], in data set [1], the “Nox2 inhibitory activity” value was “comparable”, the “Selectivity for Nox2 over other Nox isoforms” value (shortened to “Selectivity for Nox2”) is reported as “greater selectivity over Nox1” and the concentration for half-maximal inhibition (IC50) turned out to be 64 ± 35 µM.
On to `C=C(C)CC1C2c3c(Br)cccc3C(CC2(C)C)N1Cc1cccs1` (racemic) [Compound 11h, (±)-(1S,4R,9S)-5-Bromo-3,3-dimethyl-9-(2-methylallyl)-10-(thiophen-2-ylmethyl)-1,2,3,4-tetrahydro-1,4-(epiminomethano)naphthalene], for which, in data set [1], the “Selectivity for Nox2” value is “specificity for Nox2 over Nox1, 4, and 5”; the IC50 turned out to be 32 ± 1.9 µM.
For `C=C(C)C[C@@H]1N[C@H]2CC(C)(C)[C@@H]1c1c(Br)ccc(Br)c12` [Compound 9], the IC50 in data set [1] was 25 ± 10 µM. Further, the “Effect on cell viability” value in data set [2] is given as “had any effect on cell viability”.
Turning to `C=C(C)CC1C2c3c(Br)cccc3C(CC2(C)C)N1Cc1c[nH]c2ccccc12` (racemic) [Compound 11c, (±)-(1S,4R,9S)-10-((1H-Indol-3-yl)methyl)-5-bromo-3,3-dimethyl-9-(2-methylallyl)-1,2,3,4-tetrahydro-1,4-(epiminomethano)naphthalene], in data set [1], the “Nox2 inhibitory activity” value is on record as “completely abolished” and the IC50 was over 100 µM.
Taken in the same sequence, the figures for `C=C(C)CC1C2c3c(-c4ccc(Cl)c(Cl)c4)cccc3C(CC2(C)C)N1Cc1ccc2c(c1)OCO2` (racemic) [Compound 12b, (±)-(1S,4R,9S)-10-(Benzo[d][1,3]dioxol-5-ylmethyl)-5-(3,4-dichlorophenyl)-3,3-dimethyl-9-(2-methylallyl)-1,2,3,4-tetrahydro-1,4-(epiminomethano)-naphthalene] were “inactive” and over 100 µM.
Taken in the same sequence, the figures for `C=C(C)CC1C2c3c(Br)cccc3C(CC2(C)C)N1Cc1ccnc2ccccc12` (racemic) [Compound 11b, (±)-(1S,4R,9S)-5-Bromo-3,3-dimethyl-9-(2-methylallyl)-10-(quinolin-4-ylmethyl)-1,2,3,4-tetra-hydro-1,4-(epiminomethano)naphthalene] were “completely abolished” and over 100 µM.
`C=C(C)CC1C2c3c(Br)cccc3C(CC2(C)C)N1S(=O)(=O)c1ccc(F)cc1` (racemic) [Compound 14b, (±)-(1S,4R,9S)-5-Bromo-10-((4-fluorophenyl)sulfonyl)-3,3-dimethyl-9-(2-methylallyl)-1,2,3,4-tetrahydro-1,4-(epiminomethano)naphthalene]: in data set [1], the “Nox2 inhibitory activity” value is reported as “completely abolished activity” and the IC50 was over 100 µM.
In the same order, the values of `C=C(C)CC1C2c3c(Br)cccc3C(CC2(C)C)N1Cc1ccc2c(c1)OCO2` (racemic) [Compound 11d, (±)-(1S,4R,9S)-10-(Benzo[d][1,3]dioxol-5-ylmethyl)-5-bromo-3,3-dimethyl-9-(2-methylallyl)-1,2,3,4-tetrahydro-1,4-(epiminomethano)naphthalene] are “decreased” and 40 µM.
As for `C=C(C)CC1NC2CC(C)(C)C1c1c(Br)cccc12` (racemic) [Compound 7, (±)-(1S,4R,9S)-5-Bromo-3,3-dimethyl-9-(2-methylallyl)-1,2,3,4-tetrahydro-1,4-(epimino-methano)-naphthalene], the 50% inhibitory concentration (IC50) in data set [1] is 40 µM and 25 to 40 µM. Besides, the “Effect on cell viability” value in data set [2] is given as “had any effect on cell viability”.
For the compound `C=C(C)CC1C2c3c(Br)cccc3C(CC2(C)C)N1Cc1cc(C)on1` (racemic) [Compound 11e, (±)-3-(1S,4R,9S)-5-Bromo-3,3-dimethyl-9-(2-methylallyl)-1,2,3,4-tetrahydro-1,4-(epimino-methano) naphthalen-10-yl)methyl)-5-methylisoxazole], in data set [1], the IC50 was found to be 12 ± 0.5 µM.
As to `C=C(C)CC1NC2CC(C)(C)C1c1ccccc12` (racemic) [Compound 8, (±)-(1S,4R,9S)-3,3-Dimethyl-9-(2-methylallyl)-1,2,3,4-tetrahydro-1,4-(epiminomethano)-naphthalene], in data set [1], the “Nox2 inhibitory activity” value was “inactive” and the concentration for half-maximal inhibition (IC50) is over 100 µM.
As for `C=C(C)CC1C2c3c(Br)cccc3C(CC2(C)C)N1CCCCC` (racemic) [Compound 11g, (±)-(1S,4R,9S)-5-Bromo-3,3-dimethyl-9-(2-methylallyl-10-pentyl-1,2,3,4-tetrahydro-1,4-(epiminomethano)naphthalene], in data set [1], the “Selectivity for Nox2” value was “specificity for Nox2 over Nox1, 4, and 5”; the IC50 stood at 20 ± 1.9 µM.
Regarding `C=C(C)CC1C2c3ccccc3C(CC2(C)C)N1Cc1cccc(F)c1` (racemic) [Compound 11a, (±)-(1S,4R,9S)-10-(3-Fluorobenzyl)-3,3-dimethyl-9-(2-methylallyl)-1,2,3,4-tetrahydro-1,4-(epiminomethano)naphthalene], in data set [1], the IC50 amounted to 30 ± 7.5 µM.
